Assay results reported in the kinase profiling compilation of Christmann-Franck et al. (2016).
“And” between values parts separate entries of the source, which are not always exact repeats. Equal values may be shown once.

Columns and labels:
Assay in all cases: radiometric filter-binding kinase assay, Kinase HotSpot
Conditions in all cases: compound 0.5 µM; ATP 10 µM
LIMK1 (human) = LIMK1 (human) (UniProt P53667)
FES (human) = FES (human) (UniProt P07332)
PLK2 (human) = PLK2 (human) (UniProt Q9NYY3)
WEE1 (human) = WEE1 (human) (UniProt P30291)
FYN (human) = FYN (human) (UniProt P06241)
HCK (human) = HCK (human) (UniProt P08631)
DCLK2 (human) = DCLK2 (human) (UniProt Q8N568)
PTK2B (human) = PTK2B (human) (UniProt Q14289)
Chain of PTK2B (human) (Q14289 whole entry, looked up): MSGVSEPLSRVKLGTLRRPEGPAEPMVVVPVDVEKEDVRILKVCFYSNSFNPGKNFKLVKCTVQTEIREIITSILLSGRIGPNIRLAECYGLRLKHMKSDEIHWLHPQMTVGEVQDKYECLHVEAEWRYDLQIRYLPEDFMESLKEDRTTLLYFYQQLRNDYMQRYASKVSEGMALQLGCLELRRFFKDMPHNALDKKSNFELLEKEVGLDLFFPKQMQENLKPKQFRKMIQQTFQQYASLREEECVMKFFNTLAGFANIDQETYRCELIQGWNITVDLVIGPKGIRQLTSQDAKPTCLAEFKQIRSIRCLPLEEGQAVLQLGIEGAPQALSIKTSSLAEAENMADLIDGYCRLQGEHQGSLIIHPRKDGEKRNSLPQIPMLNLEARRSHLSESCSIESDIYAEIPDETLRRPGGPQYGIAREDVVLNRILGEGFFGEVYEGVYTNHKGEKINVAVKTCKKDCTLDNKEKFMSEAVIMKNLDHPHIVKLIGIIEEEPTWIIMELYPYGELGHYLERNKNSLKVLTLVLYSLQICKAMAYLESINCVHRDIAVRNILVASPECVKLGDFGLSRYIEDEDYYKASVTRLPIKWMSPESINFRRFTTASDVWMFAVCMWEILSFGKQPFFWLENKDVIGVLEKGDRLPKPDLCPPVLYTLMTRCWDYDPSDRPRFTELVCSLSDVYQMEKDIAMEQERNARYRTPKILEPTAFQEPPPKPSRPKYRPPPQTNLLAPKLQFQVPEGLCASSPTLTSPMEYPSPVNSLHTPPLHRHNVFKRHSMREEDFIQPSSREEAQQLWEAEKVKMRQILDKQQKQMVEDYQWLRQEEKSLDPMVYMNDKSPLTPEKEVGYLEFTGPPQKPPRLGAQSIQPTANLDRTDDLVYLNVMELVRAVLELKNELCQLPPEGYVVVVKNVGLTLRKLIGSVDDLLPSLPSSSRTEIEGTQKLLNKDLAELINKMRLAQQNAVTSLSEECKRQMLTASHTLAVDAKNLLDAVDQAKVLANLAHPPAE

EPHB2 (human) = EPHB2 (human) (UniProt P29323)
PASK (human) = PASK (human) (UniProt Q96RG2)
MET (human) = MET (human) (UniProt P08581)
STK16 (human) = STK16 (human) (UniProt O75716)
AKT3 (human) = AKT3 (human) (UniProt Q9Y243)
CSNK2A2 (human) = CSNK2A2 (human) (UniProt P19784)
BMX (human) = BMX (human) (UniProt P51813)
CSNK1G1 (human) = CSNK1G1 (human) (UniProt Q9HCP0)
PRKACG (human) = PRKACG (human) (UniProt P22612)
[1] = molecular target: TYK2 JH1 catalytic (human) (UniProt P29597)
EPHA6 (human) = EPHA6 (human) (UniProt Q9UF33)
Chain of EPHA6 (human) (Q9UF33 whole entry, looked up): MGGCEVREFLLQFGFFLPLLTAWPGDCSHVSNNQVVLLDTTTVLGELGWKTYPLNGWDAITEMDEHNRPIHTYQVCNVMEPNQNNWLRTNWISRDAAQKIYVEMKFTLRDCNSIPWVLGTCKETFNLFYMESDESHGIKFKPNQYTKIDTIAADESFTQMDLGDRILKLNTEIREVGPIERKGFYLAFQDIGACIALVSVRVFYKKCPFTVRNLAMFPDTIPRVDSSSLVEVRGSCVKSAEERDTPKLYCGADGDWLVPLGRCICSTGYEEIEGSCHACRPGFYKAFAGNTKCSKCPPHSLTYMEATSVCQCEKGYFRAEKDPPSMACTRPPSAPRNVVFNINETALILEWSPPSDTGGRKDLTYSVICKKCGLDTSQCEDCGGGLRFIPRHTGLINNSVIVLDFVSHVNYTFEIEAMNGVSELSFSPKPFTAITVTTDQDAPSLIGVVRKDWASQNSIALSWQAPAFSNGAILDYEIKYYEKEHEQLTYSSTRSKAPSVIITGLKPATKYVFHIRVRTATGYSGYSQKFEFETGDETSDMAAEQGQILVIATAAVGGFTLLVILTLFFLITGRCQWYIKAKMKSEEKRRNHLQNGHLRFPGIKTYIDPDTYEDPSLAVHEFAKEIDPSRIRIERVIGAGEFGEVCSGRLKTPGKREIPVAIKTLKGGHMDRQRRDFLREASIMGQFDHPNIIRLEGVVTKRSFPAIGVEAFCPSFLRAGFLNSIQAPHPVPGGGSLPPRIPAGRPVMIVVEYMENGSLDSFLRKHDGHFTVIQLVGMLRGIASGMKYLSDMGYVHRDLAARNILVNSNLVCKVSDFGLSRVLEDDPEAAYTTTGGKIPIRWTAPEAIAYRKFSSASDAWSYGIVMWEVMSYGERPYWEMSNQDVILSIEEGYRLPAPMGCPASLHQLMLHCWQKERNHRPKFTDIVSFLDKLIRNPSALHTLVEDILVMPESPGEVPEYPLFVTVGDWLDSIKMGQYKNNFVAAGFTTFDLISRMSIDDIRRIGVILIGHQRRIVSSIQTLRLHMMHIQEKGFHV

EPHA1 (human) = EPHA1 (human) (UniProt P21709)
Chain of EPHA1 (human) (P21709 whole entry, looked up): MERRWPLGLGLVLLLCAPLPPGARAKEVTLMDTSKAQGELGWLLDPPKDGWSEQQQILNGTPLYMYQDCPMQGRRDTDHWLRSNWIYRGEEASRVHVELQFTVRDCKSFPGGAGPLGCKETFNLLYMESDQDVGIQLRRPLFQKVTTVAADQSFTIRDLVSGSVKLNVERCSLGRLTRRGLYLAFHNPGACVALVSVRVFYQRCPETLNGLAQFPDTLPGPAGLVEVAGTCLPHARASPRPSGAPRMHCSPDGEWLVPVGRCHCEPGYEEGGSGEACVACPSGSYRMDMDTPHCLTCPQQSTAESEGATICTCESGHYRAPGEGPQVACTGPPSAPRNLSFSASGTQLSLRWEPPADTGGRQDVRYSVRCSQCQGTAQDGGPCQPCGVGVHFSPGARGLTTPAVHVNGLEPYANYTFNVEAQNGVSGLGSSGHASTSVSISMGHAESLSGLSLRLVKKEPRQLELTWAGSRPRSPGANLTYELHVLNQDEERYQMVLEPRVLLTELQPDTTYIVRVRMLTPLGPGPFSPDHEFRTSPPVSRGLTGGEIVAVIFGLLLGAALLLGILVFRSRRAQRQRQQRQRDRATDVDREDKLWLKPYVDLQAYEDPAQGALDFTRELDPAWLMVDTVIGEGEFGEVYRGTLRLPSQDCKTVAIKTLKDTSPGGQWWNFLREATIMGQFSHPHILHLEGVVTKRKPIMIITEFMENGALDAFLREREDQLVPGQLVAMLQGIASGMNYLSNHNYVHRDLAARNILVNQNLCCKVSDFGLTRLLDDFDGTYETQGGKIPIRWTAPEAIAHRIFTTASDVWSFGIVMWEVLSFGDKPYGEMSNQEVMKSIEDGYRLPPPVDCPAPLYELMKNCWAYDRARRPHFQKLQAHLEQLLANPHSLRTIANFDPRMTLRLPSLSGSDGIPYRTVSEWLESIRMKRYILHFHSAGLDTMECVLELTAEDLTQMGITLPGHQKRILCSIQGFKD

FGFR1 (human) = FGFR1 (human) (UniProt P11362)
CAMKK1 (human) = CAMKK1 (human) (UniProt Q8N5S9)
VRK1 (human) = VRK1 (human) (UniProt Q99986)
ULK3 (human) = ULK3 (human) (UniProt Q6PHR2)
WNK3 (human) = WNK3 (human) (UniProt Q9BYP7)
MYO3B (human) = MYO3B (human) (UniProt Q8WXR4)
SRPK1 (human) = SRPK1 (human) (UniProt Q96SB4)
MAPK13 (human) = MAPK13 (human) (UniProt O15264)
GSG2 (human) = GSG2 (human) (UniProt Q8TF76)
[2] = molecular target: JAK1 JH1 catalytic (human) (UniProt P23458)
Chain of JAK1 JH1 catalytic (human) (P23458 whole entry, looked up): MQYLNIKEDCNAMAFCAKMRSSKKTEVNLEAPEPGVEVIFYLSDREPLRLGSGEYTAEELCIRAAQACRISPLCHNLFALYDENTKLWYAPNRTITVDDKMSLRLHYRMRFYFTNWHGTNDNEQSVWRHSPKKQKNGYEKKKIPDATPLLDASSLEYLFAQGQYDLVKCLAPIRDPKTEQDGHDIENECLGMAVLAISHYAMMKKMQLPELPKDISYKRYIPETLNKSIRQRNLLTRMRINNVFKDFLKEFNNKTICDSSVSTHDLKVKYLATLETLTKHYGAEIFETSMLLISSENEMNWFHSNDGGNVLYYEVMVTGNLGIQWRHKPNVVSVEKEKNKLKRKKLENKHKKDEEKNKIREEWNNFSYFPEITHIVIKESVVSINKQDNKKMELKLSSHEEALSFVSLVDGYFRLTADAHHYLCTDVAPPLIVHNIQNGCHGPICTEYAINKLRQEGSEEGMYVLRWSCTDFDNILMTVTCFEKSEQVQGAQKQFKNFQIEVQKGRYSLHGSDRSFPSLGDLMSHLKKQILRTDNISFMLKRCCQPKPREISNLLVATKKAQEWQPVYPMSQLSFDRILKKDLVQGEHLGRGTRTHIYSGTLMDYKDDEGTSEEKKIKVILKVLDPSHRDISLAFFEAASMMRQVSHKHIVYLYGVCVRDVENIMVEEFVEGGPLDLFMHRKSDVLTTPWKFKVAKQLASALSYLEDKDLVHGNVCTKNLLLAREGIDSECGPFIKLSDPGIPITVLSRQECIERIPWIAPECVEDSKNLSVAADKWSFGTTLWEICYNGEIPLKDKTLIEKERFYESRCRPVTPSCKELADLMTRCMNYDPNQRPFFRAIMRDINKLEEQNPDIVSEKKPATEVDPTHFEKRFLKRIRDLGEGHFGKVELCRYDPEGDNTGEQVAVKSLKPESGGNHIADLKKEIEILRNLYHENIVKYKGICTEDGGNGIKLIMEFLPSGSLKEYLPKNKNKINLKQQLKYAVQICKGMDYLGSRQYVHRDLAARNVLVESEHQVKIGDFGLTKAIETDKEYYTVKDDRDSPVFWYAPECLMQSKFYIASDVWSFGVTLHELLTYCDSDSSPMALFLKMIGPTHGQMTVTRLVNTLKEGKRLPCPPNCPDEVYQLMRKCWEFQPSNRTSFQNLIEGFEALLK

AURKB (human) = AURKB (human) (UniProt Q96GD4)
PRKG1 (human) = PRKG1 (human) (UniProt Q13976)
Chain of PRKG1 (human) (Q13976 whole entry, looked up): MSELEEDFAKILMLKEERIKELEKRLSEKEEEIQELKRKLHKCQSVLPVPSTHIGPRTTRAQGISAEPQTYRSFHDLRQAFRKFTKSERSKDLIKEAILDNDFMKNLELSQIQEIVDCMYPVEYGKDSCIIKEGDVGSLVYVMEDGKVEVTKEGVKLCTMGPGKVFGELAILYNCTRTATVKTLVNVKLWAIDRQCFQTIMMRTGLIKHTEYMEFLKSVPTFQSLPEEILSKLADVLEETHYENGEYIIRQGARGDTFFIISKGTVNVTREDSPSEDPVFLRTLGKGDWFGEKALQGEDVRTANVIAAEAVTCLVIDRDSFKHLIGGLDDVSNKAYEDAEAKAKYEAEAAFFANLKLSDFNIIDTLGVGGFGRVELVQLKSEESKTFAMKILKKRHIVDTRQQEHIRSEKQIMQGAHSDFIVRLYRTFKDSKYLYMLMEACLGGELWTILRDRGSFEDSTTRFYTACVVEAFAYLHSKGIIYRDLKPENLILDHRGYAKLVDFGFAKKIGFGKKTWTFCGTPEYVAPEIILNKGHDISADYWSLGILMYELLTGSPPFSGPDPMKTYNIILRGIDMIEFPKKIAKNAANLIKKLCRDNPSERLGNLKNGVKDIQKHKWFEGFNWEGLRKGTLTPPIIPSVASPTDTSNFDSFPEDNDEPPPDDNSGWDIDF

PIM3 (human) = PIM3 (human) (UniProt Q86V86)
ABL2 (human) = ABL2 (human) (UniProt P42684)
FRK (human) = FRK (human) (UniProt P42685)
NUAK2 (human) = NUAK2 (human) (UniProt Q9H093)
DYRK4 (human) = DYRK4 (human) (UniProt Q9NR20)
MAP2K1 (human) = MAP2K1 (human) (UniProt Q02750)
GSK3B (human) = GSK3B (human) (UniProt P49841)
PNCK (human) = PNCK (human) (UniProt Q6P2M8)
FGFR3 (human) = FGFR3 (human) (UniProt P22607)
MKNK2 (human) = MKNK2 (human) (UniProt Q9HBH9)

With `CN(C)S(=O)(=O)c1ccc2c(c1)/C(=C/c1cc3c([nH]1)CCCC3)C(=O)N2` the residual activity (LIMK1 (human)) was 60.7%, the residual activity (FES (human)) was 76.9% and the residual activity (PLK2 (human)) was 94.4%. The residual activity (WEE1 (human)) was 94.5%, the residual activity (FYN (human)) was 33.1% and the residual activity (HCK (human)) was 31.6%. For the same molecule, the residual activity (DCLK2 (human)) was 72%, the residual activity (PTK2B (human)) was 52.6% and the residual activity (EPHB2 (human)) was 98.4%. The residual activity (PASK (human)) was 95.6%, the residual activity (MET (human)) was 92.2% and the residual activity (STK16 (human)) was 104%. The residual activity (AKT3 (human)) was 96.7%, the residual activity (CSNK2A2 (human)) was 92.1% and the residual activity (BMX (human)) was 103%. The residual activity (CSNK1G1 (human)) was 101%, the residual activity (PRKACG (human)) was 114% and the residual activity [1] was 11.4%. It also gave a residual activity (EPHA6 (human)) of 61.9%, a residual activity (EPHA1 (human)) of 94.5% and a residual activity (FGFR1 (human)) of 71.4%. The residual activity (CAMKK1 (human)) was 65.4%, the residual activity (VRK1 (human)) was 104% and the residual activity (ULK3 (human)) was 26.3%. For the same molecule, the residual activity (WNK3 (human)) was 96.5%, the residual activity (MYO3B (human)) was 98.9% and the residual activity (SRPK1 (human)) was 63.8%. For the same molecule, the residual activity (MAPK13 (human)) was 103%, the residual activity (GSG2 (human)) was 116% and the residual activity [2] was 66.8%. The residual activity (AURKB (human)) was 11%, the residual activity (PRKG1 (human)) was 82.5% and 88.6% and the residual activity (PIM3 (human)) was 117%. The residual activity (ABL2 (human)) was 56.8%, the residual activity (FRK (human)) was 86% and the residual activity (NUAK2 (human)) was 95.1%. It also gave a residual activity (DYRK4 (human)) of 98.2%, a residual activity (MAP2K1 (human)) of 88.7% and a residual activity (GSK3B (human)) of 95.6%. It also gave a residual activity (PNCK (human)) of 95.7%, a residual activity (FGFR3 (human)) of 57.1% and a residual activity (MKNK2 (human)) of 84.1%.
